{"source": "patent US6113896A", "about": "“Pharmaceutical compositions containing ecotin and homologs thereof” (priority 1994, dated 2000)", "key": {"[1]": {"tested_on": "FXa", "test": "Ecotin·FXa dissociation rate constant (HLE trap)", "assay_type": "biochemical, human", "settings": "for koff (values in parenthesis): calculated from (Ki)·(kon); for koff: measured in presence of excess HLE to trap free ecotin", "description": "Determination of FXa dissociation rate constant The dissociation rate constant of the ecotin.cndot.FXa complex was measured using HLE to trap the free ecotin released from the complex. FXa (10 μM) was incubated for 1 h in TNCT buffer in the presence and absence of ecotin (12.5 μM) and diluted 1000-fold into TNCT buffer with and without HLE (500 nM). Aliquots (180 μl ) were removed at various times and initial rates of free FXa were measured at 405 nm with 20 μl of 5 mM Spectrozyme fXa. The product curve (free FXa versus time) was fit to equation 6; the value for koff was determined by nonlinear regression analysis.\nTo measure the dissociation rate constant of ecotin from FXa, the complex was diluted 1000-fold into buffer containing a 50-fold excess of HLE to trap the free ecotin and prevent reassociation. In the absence of HLE, reassociation of ecotin with FXa was so rapid that free FXa was barely detectible (FIG. 4B). Progress of dissociation was monitored as the increase in hydrolysis rate of Spectrozyme fXa resulting from the increasing free FXa with time. Because HLE prevented reassociation the rate of dissociation of the E·I complex is given by equation (5): [formula] which upon integration gives equation (6): […]\nwhere [E] is the free [FXa] at any time t, [E.cndot.I]0 is the concentration of the complex at time zero, and koff is the first order dissociation rate constant. The time dependent E·I complex dissociation curve fit to equation (6) by nonlinear regression analysis is shown in FIG. 4B; the dissociation rate constant for ecotin tested is shown above in Table I."}, "[2]": {"tested_on": "activated protein C", "test": "Specificity assay, activated protein C", "assay_type": "biochemical, human", "settings": "for Percent Activity of Activated protein C: 100 nM inhibitor, ~1 h, 4.3 nM enzyme", "description": "(§1) Specificity Assays The following assays were used to test the specificity of ecotin and the M84K and M84R mutants against various proteases. Ecotin, M84K, M84R (100 nM each), or a control blank were incubated at room temperature for ~1 h with each enzyme. The enzymes tested (enzyme concentration, buffer, substrate) were FXa (1.2 nM, Buffer A, 0.7 mM Spectrozyme fXa), thrombin (3.7 nM, Buffer A, 0.7 mM S2366), TF.cndot.FVIIa (12.0 nM, Buffer B, 0.7 mM S2366), FXIa (1.2 nM, Buffer A containing 1 mg/ml BSA, 0.7 mM S2366), activated protein C (4.3 nM, Buffer A, 0.7 mM S2366), plasmin (15 nM, Buffer A, 1 mM S2251), single chain t-PA (15 nM, Buffer A, 2.5 mM S2288), Factor XIIa (10 nM, Buffer A, 0.5 mM S2302, plasma kallikrein (10 nM, Buffer A, 0.5 mM S2302), HLE (17 nM, 0.1 M Tris, pH 7.5, 0.5 M NaCl and 0.005 % Triton X-100, 0.42 mM MeOSuc-AAPV-pNA) (SEQ ID NO:9), bovine trypsin (10 nM, Buffer A, 0.25 mM Spectrozyme fXa), and bovine chymotrypsin (10 nM, Buffer A, 1 mM Suc-AAPF-pNA) (SEQ ID NO:10). Buffer A contains 50 mM Tris, pH 7.5, 100 mM NaCl, 2 mM CaCl2 and 0.005% Triton X-100. Buffer B contains 50 mM Tris, pH 7.5, 100 mM NaCl, 10 mM CaCl2, 0.5% BSA, 60 nM TF1-243,and 1 mM CHAPS. The initial change in absorbance at 405 nm was monitored after addition of substrate. Controls lacking inhibitor and/or enzyme were also assayed to assess the uninhibited rates and the background substrate hydrolysis rates, respectively."}, "[3]": {"tested_on": "bovine chymotrypsin", "test": "Specificity assay, bovine chymotrypsin", "assay_type": "biochemical", "settings": "for Percent Activity of Chymotrypsin: 100 nM inhibitor, ~1 h, 10 nM enzyme; for inhibition of bovine chymotrypsin, in words: text statement", "description": "as §1"}, "[4]": {"tested_on": "bovine trypsin", "test": "Specificity assay, bovine trypsin", "assay_type": "biochemical", "settings": "for Percent Activity of Trypsin: 100 nM inhibitor, ~1 h, 10 nM enzyme; for inhibition of bovine trypsin, in words: text statement", "description": "as §1"}, "[5]": {"tested_on": "Factor XIIa", "test": "Specificity assay, Factor XIIa", "assay_type": "biochemical, human", "settings": "for Percent Activity of Factor XIIa: 100 nM inhibitor, ~1 h, 10 nM enzyme", "description": "as §1"}}, "data": [{"substance": "Ecotin: E. coli periplasmic protein having the 142 amino acid residue sequence reported by McGrath et al.; recombinant, P1 Met84", "values": [{"measurement": "half-life of ecotin·FXa complex in vitro", "setting": "[1]", "value": "ca. 3 h"}, {"measurement": "koff (values in parenthesis)", "setting": "[1]", "value": "2.2e-05", "unit": "s⁻¹"}, {"measurement": "koff", "setting": "[1]", "value": "6.5e-05", "unit": "s⁻¹"}, {"measurement": "koff", "setting": "[1]; listed as Wild type", "value": "6.5e-05", "unit": "s⁻¹"}, {"measurement": "koff", "setting": "[1]; listed as ecotin", "value": "6.5e-05", "unit": "s⁻¹"}, {"measurement": "Percent Activity of Activated protein C", "setting": "[2]", "value": 99, "unit": "%"}, {"measurement": "inhibition of activated protein C, in words", "setting": "[2]; text statement", "value": "did not effectively inhibit"}, {"measurement": "inhibition of activated protein C, in words", "setting": "[2]; text statement, listed as ecotin", "value": "little or no inhibition"}, {"measurement": "Percent Activity of Chymotrypsin", "setting": "[3]", "value": 0, "unit": "%"}, {"measurement": "Percent Activity of Trypsin", "setting": "[4]", "value": 0, "unit": "%"}, {"measurement": "Percent Activity of Factor XIIa", "setting": "[5]", "value": 0, "unit": "%"}, {"measurement": "inhibition of FXIIa, in words", "setting": "[5]; text statement", "value": "potently inhibited"}]}, {"substance": "M84R", "values": [{"measurement": "koff (values in parenthesis)", "setting": "[1]", "value": "1e-06", "unit": "s⁻¹"}, {"measurement": "Percent Activity of Activated protein C", "setting": "[2]", "value": 50, "unit": "%"}, {"measurement": "inhibition of activated protein C, in words", "setting": "[2]; listed as P1 Arg mutant", "value": "significantly inhibited"}, {"measurement": "inhibition of activated protein C, in words", "setting": "[2]; text statement", "value": "significant inhibition"}, {"measurement": "Percent Activity of Chymotrypsin", "setting": "[3]", "value": 0, "unit": "%"}, {"measurement": "inhibition of bovine chymotrypsin, in words", "setting": "[3]", "value": "significantly inhibited"}, {"measurement": "Percent Activity of Trypsin", "setting": "[4]", "value": 0, "unit": "%"}, {"measurement": "inhibition of bovine trypsin, in words", "setting": "[4]", "value": "significantly inhibited"}, {"measurement": "Percent Activity of Factor XIIa", "setting": "[5]", "value": 1, "unit": "%"}, {"measurement": "inhibition of FXIIa, in words", "setting": "[5]; listed as P1 Arg mutant", "value": "significantly inhibited"}, {"measurement": "inhibition of FXIIa, in words", "setting": "[5]; text statement", "value": "still potently inhibited"}]}, {"substance": "M84K", "values": [{"measurement": "koff (values in parenthesis)", "setting": "[1]", "value": "4.5e-06", "unit": "s⁻¹"}, {"measurement": "Percent Activity of Activated protein C", "setting": "[2]", "value": 65, "unit": "%"}, {"measurement": "inhibition of activated protein C, in words", "setting": "[2]; listed as P1 Lys mutant", "value": "significantly inhibited"}, {"measurement": "inhibition of activated protein C, in words", "setting": "[2]; text statement", "value": "significant inhibition"}, {"measurement": "Percent Activity of Chymotrypsin", "setting": "[3]", "value": 1, "unit": "%"}, {"measurement": "inhibition of bovine chymotrypsin, in words", "setting": "[3]", "value": "significantly inhibited"}, {"measurement": "Percent Activity of Trypsin", "setting": "[4]", "value": 0, "unit": "%"}, {"measurement": "inhibition of bovine trypsin, in words", "setting": "[4]", "value": "significantly inhibited"}, {"measurement": "Percent Activity of Factor XIIa", "setting": "[5]", "value": 0, "unit": "%"}, {"measurement": "inhibition of FXIIa, in words", "setting": "[5]; listed as P1 Lys mutant", "value": "significantly inhibited"}, {"measurement": "inhibition of FXIIa, in words", "setting": "[5]; text statement", "value": "still potently inhibited"}]}]}
